# Values quoted from earlier work, collected in patent US20200261422A1, “METHODS FOR […] […] HUMAN PATIENTS USING I[…]-2 […]” (Massachusetts Institute of Technology, priority 2019, published 2020).
# What was measured:
# [1] = in vivo
# [2] = tested on: effects of dexmedetomidine (α2 adrenergic receptor agonist); conditions: intramuscular injection; dexmedetomidine e.g. DEXDOMITOR and DEXDOMITOR 0.1
Structure (SMILES),terminal elimination half-life [1],time to reverse the effects of dexmedetomidine [2] [min]
"Cc1cccc([C@H](C)c2cnc[nH]2)c1C [dexmedetomidine, Dexmedetomidine]",about 2 hours,–
"CCC1(c2cnc[nH]2)Cc2ccccc2C1 [atipamezole, 4-(2-ethyl-2,3-dihydro-1H-inden-2-yl)-1H-imidazole]",–,5 to 10
